Patent US7718653B2, “Pyrimidine derivatives for inhibiting Eph receptors” (AstraZeneca AB, priority 2007, dated 2010)

Target: T1, EphB4 (Homo sapiens, UniProt P54760)
T1 construct: to generate full-length EphB4 containing a Myc-His tag at the C-terminus; expressed in transfected cells; EphB4-CHO)
T1 sequence (P54760 16-987): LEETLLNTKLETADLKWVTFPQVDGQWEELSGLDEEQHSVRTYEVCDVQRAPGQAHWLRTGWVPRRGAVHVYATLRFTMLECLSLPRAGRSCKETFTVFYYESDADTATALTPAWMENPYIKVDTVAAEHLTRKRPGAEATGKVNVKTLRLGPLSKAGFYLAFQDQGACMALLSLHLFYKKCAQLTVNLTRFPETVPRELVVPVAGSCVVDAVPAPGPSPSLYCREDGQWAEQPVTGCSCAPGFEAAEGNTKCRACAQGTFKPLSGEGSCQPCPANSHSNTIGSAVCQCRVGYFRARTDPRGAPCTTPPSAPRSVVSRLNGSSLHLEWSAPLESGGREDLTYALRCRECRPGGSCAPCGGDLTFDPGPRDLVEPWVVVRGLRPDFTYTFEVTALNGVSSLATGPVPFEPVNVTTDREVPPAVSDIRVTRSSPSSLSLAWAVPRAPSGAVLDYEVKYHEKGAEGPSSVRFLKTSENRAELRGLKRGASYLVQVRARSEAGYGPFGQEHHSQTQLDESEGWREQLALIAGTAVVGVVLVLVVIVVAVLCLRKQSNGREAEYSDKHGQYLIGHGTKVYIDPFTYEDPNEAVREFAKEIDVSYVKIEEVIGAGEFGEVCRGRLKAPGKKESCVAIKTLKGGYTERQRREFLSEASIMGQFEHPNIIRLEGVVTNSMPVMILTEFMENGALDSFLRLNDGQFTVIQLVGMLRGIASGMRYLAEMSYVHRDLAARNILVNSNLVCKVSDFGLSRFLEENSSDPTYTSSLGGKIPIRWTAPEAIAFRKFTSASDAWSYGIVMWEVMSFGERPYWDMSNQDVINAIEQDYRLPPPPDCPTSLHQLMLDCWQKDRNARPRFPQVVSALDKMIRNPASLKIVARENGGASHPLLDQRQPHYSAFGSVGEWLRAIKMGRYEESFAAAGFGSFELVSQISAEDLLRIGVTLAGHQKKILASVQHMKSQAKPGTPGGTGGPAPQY
Assay: In vitro EphB4 cell assay (EphB4 phosphorylation in EphB4-CHO cells, sandwich ELISA)
Format: cell-based
Settings: stimulated with clustered ephrin-B2, read-out: IC50 in assay B
Description: B) In vitro EphB4 Cell Assay
The assay identifies inhibitors of cellular EphB4 by measuring a decrease in phosphorylation of EphB4 following treatment of cells with compound. The endpoint assay used a sandwich ELISA to detect EphB4 phosphorylation status. Briefly, Myc-tagged EphB4 from treated cell lysate was captured on the ELISA plate via an anti-c-Myc antibody. The phosphorylation status of captured EphB4 was then measured using a generic phosphotyrosine antibody conjugated to HRP via a colourimetric output catalysed by HRP, with level of EphB4 phosphorylation directly proportional to the colour intensity. Absorbance was measured spectrophotometrically at 450 nm.
Full length human EphB4 (Swiss-Prot Acc. No. P54760) was cloned using standard techniques from cDNA prepared from HUVEC using RT-PCR. The cDNA fragment was then sub-cloned into a pcDNA3.1 expression vector containing a Myc-His epitope tag to generate full-length EphB4 containing a Myc-His tag at the C-terminus (Invitrogen Ltd. Paisley, UK). CHO-K^1 cells (LGC Promochem, Teddington, Middlesex, UK, Catalogue No. CCL-61) were maintained in HAM's F12 medium (Sigma-Aldrich Company Ltd, Gillingham, Dorset SP8 4XT, Catalogue No. N4888) containing 10% heat-inactivated foetal calf serum (PAA lab GmbH, Pasching, Austria Catalogue No. PAA-A15-043) and 1% glutamax-1 (Invitrogen Ltd., Catalogue No. 35050-038) at 37° C. with 5% CO2. […]

- IC50: 26 nM
SMILES: c1cc(Nc2ccnc(Nc3cc(N4CCOCC4)nc(N4CCOCC4)c3)n2)c2cn[nH]c2c1 [Example 3, N2-(2,6-dimorpholinopyridin-4-yl)-N4-(1H-indazol-4-yl)pyrimidine-2,4-diamine]
